Test results reported in article PMC3055912, “A Method for Structure–Activity Analysis of Quorum-Sensing Signaling Peptides from Naturally Transformable Streptococci” (Biological Procedures Online, 2009).
Peptide text beside a SMILES is read from it.

Tests used:
[1] = tested on: nlmAB promoter (PnlmAB::lacZ) in comC mutant SMdC; assay: nlmAB-lacZ reporter β-gal activity, strain SMdC-PnlmAB; assay type: cell-based, Streptococcus mutans; conditions: for time for which the high level of β-gal activity is maintained / time of highest level of β-gal activity after addition of peptide: SMdC-PnlmAB, time-course experiment
From the text: (§1) To assay QS activation in response to addition of a peptide, we constructed two types of lacZ transcriptional reporter strains that represented two levels of QS-activated gene expression. The first was a lacZ reporter gene fused to the comDE promoter, which allowed monitoring of the activity of the comDE promoter in response to a test peptide. The second strain was a lacZ reporter gene fused to the promoter of nlmAB, the gene encoding a nonlantibiotic bacteriocin and its expression directly controlled by the ComE [6, 22]. This strain allowed assay of comDE-controlled bacteriocin production.
For the second reporter strain, we generated a chromosomal nlmAB–lacZ fusion strain by transforming a PnlmAB::lacZ fusion construct pOMZ47 [6] into both comC mutant SMdC and wild-type GS5. The resulting reporter strains were confirmed by PCR and sequencing of the fusion sites as described previously. The confirmed reporter strains were respectively named SMdC-PnlmAB (PnlmAB::lacZ, comC^-, Kan^r, Spec^r) and SMGS5-PnlmAB (PnlmAB::lacZ, Kan^r). The strain SMGS5-PnlmAB was used a positive control.
A lacZ reporter assay was performed to monitor quorum-sensing activation using the same method as described previously. The newly constructed lacZ reporter strains were used to assay and quantify β-galactosidase activity in response to test peptides. Aliquots of samples were taken to prepare cell lysates at different time points T0, T15, T30, T60, and T120 after addition of a test peptide. Protein concentrations of the supernatants were determined by Bio-Rad protein assay (Bio-Rad). Specific β-gal activities (A420 min^-1 mL^-1 mg^-1 protein) were calculated from triplicate samples from two independent experiments. The data from the β-gal activity experiments were then normalized against negative or background controls and plotted as percentages of maximal activation versus log peptide concentrations. The half maximal activation concentration (AC50) was determined from the sigmoidal dose–response curve using Prism 4 (Graphpad, San Diego, CA, USA).

[2] = tested on: comDE promoter (PcomDE::lacZ) in comC mutant SMdC; assay: comDE-lacZ reporter β-gal activity, strain SMdC-pYH2; assay type: cell-based, Streptococcus mutans; conditions: background control SMdC-pSL showed no significant difference
From the text: as §1
For the first reporter strain, we simply transformed previously constructed vector pYH2 [10] into the comC mutant (SMdC) to generate SMdC-pYH2 (PcomDE::lacZ, comC^-, Spec^r, Kan^r). pYH2 was constructed in such a way that the comDE promoter was fused to a promoterless lacZ gene on the backbone of Streptococcus–Escherichia coli shuttle vector pSL. […] These strains were then assessed for lacZ reporter activity in response to addition of peptides.
A lacZ reporter assay was performed to monitor quorum-sensing activation using the same method as described previously. The newly constructed lacZ reporter strains were used to assay and quantify β-galactosidase activity in response to test peptides. […] Protein concentrations of the supernatants were determined by Bio-Rad protein assay (Bio-Rad). […]

[3] = tested on: S. mutans comC mutant SMdC (indicator strain Streptococcus sanguinis SK108); assay: QS-controlled bacteriocin production, agar plate overlay assay; assay type: cell-based; conditions: for level of bacteriocins induced compared with wild-type GS5: comC mutant SMdC with peptide, inhibitory zone against S. sanguinis SK108, Figure 5
Procedure: The S. mutans comC mutant SMdC as well as its parent GS5 and wild-type strain UA159 (positive controls) were used to assay for bacteriocin production using a modified agar plate method. Briefly, an aliquot of mid-log phase cells of the S. mutans wild-type strains and mutant SMdC grown under a condition with or without use of CSP or a test peptide were stabbed onto THYE agar plates. The plates were incubated anaerobically at 37°C for 6 h before carefully overlaid with 100 μL of cell suspension (about 10^6 CFU/mL^-1) of an indicator strain Streptococcus sanguinis SK108. The plates were further incubated anaerobically at 37°C for 24 h before inspection of bacteriocin production. The S. mutans strains showing an inhibitory zone around the stabs were scored as positive for bacteriocin production. The plates were then photographed for records.

[4] = aqueous buffer 50 mM K2HPO4/KH2PO4 pH 7.0; NMR needs 1.0 to 10 mM peptide
Procedure: For NMR studies, buffers, co-solvents, and additives were hydrogen-free or deuterated. Samples could be dissolved in as little as 10 μL, but typically, spectrometers were designed for sample volumes of at least 500 μL. Due to the inherently low sensitivity, concentrations of peptides ranged from 1.0 to 10 mM [13].
In our study, synthetic peptides CSP (UA159sp) and TPC3 for CD and NMR were dissolved in 95/5/0%, 70/0/30%, 30/0/70%, or 0/0/100% aqueous buffer/D2O/TFE-d2, or 95/5 aqueous buffer/D2O with 300 mM DPC-d38 (98 atom %D), where TFE refers to trifluoroethanol and DPC-d38 refers to perdeuterated dodecylphosphocholine [10, 13]. The aqueous buffer used for sample preparation contained 50 mM K2HPO4/KH2PO4 at pH 7.0. The concentration of peptides for solutions containing 100% TFE-d2 or DPC-d38 was 2 and 5 mM.

[5] = tested on: comDE promoter (PcomDE::lacZ) in comC mutant SMdC; conditions: SMdC-pYH2; cited from earlier work
Procedure: We also used this mutant (SMdC) as a host to generate two types of lacZ transcriptional reporter fusion strains to assay the promoter activity of QS-controlled target genes, comDE and nlmAB, in response to addition of CSP. The lacZ reporter strain, SMdC-pYH2 (PcomDE::lacZ, comC^-, Spec^r, Kan^r), along with its background control strain SMdC-pSL (comC^-, Spec^r, Kan^r) were then assayed for β-galactosidase activity.

[6] = tested on: S. mutans comC mutant SMdC; assay: CSP-dependent transformation (genetic competence) assay; assay type: cell-based, Streptococcus mutans; conditions: data not shown
From the text: To determine if synthetic peptides activated quorum sensing for induction of genetic competence, we used the comC deletion mutant that was unable to produce, but still responded to CSP, to assay peptide-dependent genetic transformation using the method as described previously. A streptococcal suicide vector pVA-gtfA, which harbored a 2.4-kb fragment of the S. mutans gtfA gene and an erythromycin resistance marker, was used as transforming DNA. The wild-type GS5 was used as a positive control, while both ComC (SMdC) and ComE mutants (SMdE) were used as negative controls. The wild-type strain was grown on Todd–Hewitt yeast extract (THYE) medium, whereas the mutants were maintained on THYE plus spectinomycin. When culture reached to early mid-log phase (OD600 ≈ 0.25), an aliquot of CSP was added into the culture at a final concentration of 50 nM (AC50 ≈ 0.25 nM). […] Transformation frequency was expressed as percentage of transformants against total viable recipient cells per milliliter cell suspension. […]
7. All the plates are incubated at 37°C for 2 days before assessment of transformation frequency, which is expressed as percentages of transformants (erythromycin-resistant colonies) against total recipient cells per […] cell suspension. […]

[7] = molecular target: quorum sensing (ComCDE signaling) in S. mutans lacZ reporter strains (Streptococcus mutans serotype c, UniProt Q8DS94); conditions: truncated peptides; cited from earlier work
Sequence of quorum sensing (ComCDE signaling) in S. mutans lacZ reporter strains (Q8DS94 entry or part of it): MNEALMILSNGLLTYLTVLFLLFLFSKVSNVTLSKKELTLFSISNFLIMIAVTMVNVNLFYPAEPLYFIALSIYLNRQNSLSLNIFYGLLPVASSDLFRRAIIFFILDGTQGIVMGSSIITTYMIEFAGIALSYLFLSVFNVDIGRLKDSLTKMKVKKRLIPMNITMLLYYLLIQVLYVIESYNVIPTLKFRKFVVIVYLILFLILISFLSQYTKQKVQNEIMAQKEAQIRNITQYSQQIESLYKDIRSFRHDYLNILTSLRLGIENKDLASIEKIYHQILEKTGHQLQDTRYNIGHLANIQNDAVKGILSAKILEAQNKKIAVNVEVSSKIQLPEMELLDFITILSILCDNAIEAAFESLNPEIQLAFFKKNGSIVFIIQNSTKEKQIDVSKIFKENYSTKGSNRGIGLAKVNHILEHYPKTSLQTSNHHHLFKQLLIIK
From the text: Based on the three-dimensional structures of S. mutans wild-type signaling peptide UA159sp (CSP) and C-terminally truncated peptide TPC3 from mutant JH1005 defective in genetic competence, we designed and synthesized a series of truncated peptides and peptides with amino acid substitutions. […] The C-terminal structural motif consisting of a sequence of polar hydrophobic charged residues is crucial for activating the signal transduction pathway, while the core α-helical structure ext ...

## CC(C)C[C@H](NC(=O)[C@H](C)NC(=O)[C@H](CCC(N)=O)NC(=O)[C@@H](NC(=O)[C@H](Cc1ccccc1)NC(=O)[C@H](CO)NC(=O)[C@H](CCCNC(=N)N)NC(=O)[C@H](CC(N)=O)NC(=O)[C@H](Cc1ccccc1)NC(=O)[C@H](CC(C)C)NC(=O)[C@H](CCCNC(=N)N)NC(=O)[C@H](Cc1ccccc1)NC(=O)[C@H](Cc1ccccc1)NC(=O)[C@@H](NC(=O)[C@H](CO)NC(=O)[C@H](CC(C)C)NC(=O)[C@H](CO)NC(=O)CNC(=O)[C@@H](N)CO)[C@@H](C)O)[C@@H](C)O)C(=O)NCC(=O)N[C@@H](CCCCN)C(=O)O [CSP (UA159sp), reference compound] (H-SGSLSTFFRLFNRSFTQALGK-OH)
[1]
  time for which the high level of β-gal activity is maintained: at least 2 h
  time of highest level of β-gal activity after addition of peptide: around 90 min
[2]
  induction of β-gal activity upon addition of peptide: induced to express predicted β-gal activity
[3]
  level of bacteriocins induced compared with wild-type GS5: induce the same level of bacteriocins as GS5
[4]
  solubility in water for NMR: not soluble enough for extensive NMR studies
[5]
  time after addition at which expression of β-gal activity declined: around 40 min

## CC(C)C[C@H](NC(=O)[C@H](C)NC(=O)[C@H](CCC(N)=O)NC(=O)[C@@H](NC(=O)[C@H](Cc1ccccc1)NC(=O)[C@H](CO)NC(=O)[C@H](Cc1ccccc1)NC(=O)[C@H](CC(N)=O)NC(=O)[C@H](Cc1ccccc1)NC(=O)[C@H](CC(C)C)NC(=O)[C@H](CCCNC(=N)N)NC(=O)[C@H](Cc1ccccc1)NC(=O)[C@H](Cc1ccccc1)NC(=O)[C@@H](NC(=O)[C@H](CO)NC(=O)[C@H](CC(C)C)NC(=O)[C@@H](N)CO)[C@@H](C)O)[C@@H](C)O)C(=O)NCC(=O)O [SPA-18] (H-SLSTFFRLFNFSFTQALG-OH; N-terminus and C-terminus assumed)
[1]
  time for which the high level of β-gal activity is maintained: at least 2 h
  time of highest level of β-gal activity after addition of peptide: around 90 min
[1]; β-gal activity of SMdC-PnlmAB, Figure 4
  replacement of CSP in activating quorum sensing: could completely replace CSP (UA159sp)
[3]; Figure 5
  replacement of CSP in inducing bacteriocin production: could completely replace CSP (UA159sp)
[3]
  level of bacteriocins induced compared with wild-type GS5: induce the same level of bacteriocins as GS5
[6]
  replacement of CSP in inducing genetic competence: could completely replace CSP (UA159sp)

## CC(C)C[C@H](NC(=O)[C@H](C)NC(=O)[C@H](CCC(N)=O)NC(=O)[C@@H](NC(=O)[C@H](Cc1ccccc1)NC(=O)[C@H](CO)NC(=O)[C@H](CCCNC(=N)N)NC(=O)[C@H](CC(N)=O)NC(=O)[C@H](Cc1ccccc1)NC(=O)[C@H](CC(C)C)NC(=O)[C@H](CCCNC(=N)N)NC(=O)[C@H](Cc1ccccc1)NC(=O)[C@H](Cc1ccccc1)NC(=O)[C@@H](NC(=O)[C@H](CO)NC(=O)[C@H](CC(C)C)NC(=O)[C@H](CO)NC(=O)CNC(=O)[C@@H](N)CO)[C@@H](C)O)[C@@H](C)O)C(=O)NCC(=O)O [TPC1] (H-SGSLSTFFRLFNRSFTQALG-OH; N-terminus and C-terminus assumed)
[7]
  agonist function, AC50 compared with CSP: functioned as agonists with AC50 values similar to CSP

## CC(C)C[C@H](NC(=O)[C@H](CCCNC(=N)N)NC(=O)[C@H](Cc1ccccc1)NC(=O)[C@H](Cc1ccccc1)NC(=O)[C@@H](NC(=O)[C@H](CO)NC(=O)[C@H](CC(C)C)NC(=O)[C@@H](NC(=O)CNC(=O)[C@@H](N)CO)[C@@H](C)O)[C@@H](C)O)C(=O)N[C@@H](Cc1ccccc1)C(=O)N[C@@H](CC(N)=O)C(=O)N[C@@H](CCCNC(=N)N)C(=O)N[C@@H](CO)C(=O)N[C@@H](Cc1ccccc1)C(=O)N[C@H](C(=O)N[C@@H](CCC(N)=O)C(=O)N[C@@H](C)C(=O)O)[C@@H](C)O [TPC3 (JH1005sp)] (H-SGTLSTFFRLFNRSFTQA-OH)
[4]
  solubility in water for NMR: not soluble enough for extensive NMR studies

## CC(C)C[C@H](NC(=O)[C@H](C)NC(=O)[C@H](CCC(N)=O)NC(=O)[C@@H](NC(=O)[C@H](Cc1ccccc1)NC(=O)[C@H](CO)NC(=O)[C@H](CCCNC(=N)N)NC(=O)[C@H](CC(N)=O)NC(=O)[C@H](Cc1ccccc1)NC(=O)[C@H](CC(C)C)NC(=O)[C@H](CCCNC(=N)N)NC(=O)[C@H](Cc1ccccc1)NC(=O)[C@H](Cc1ccccc1)NC(=O)[C@@H](NC(=O)[C@H](CO)NC(=O)[C@H](CC(C)C)NC(=O)[C@@H](N)CO)[C@@H](C)O)[C@@H](C)O)C(=O)NCC(=O)N[C@@H](CCCCN)C(=O)O [TPN2] (H-SLSTFFRLFNRSFTQALGK-OH; N-terminus and C-terminus assumed)
[7]
  agonist function, AC50 compared with CSP: functioned as agonists with AC50 values similar to CSP
